Assay results as given in US20170184612A1, “USE OF LEUKOCYTES AND NOVEL BIOMARKERS IN THE DIAGNOSIS, CONFIRMATION, AND TREATMENT OF A NEUROLOGICAL DISORDER” (The Trustees of Columbia University in the City of New York, priority 2014, published 2017).

Columns and labels:
Type in all cases: cell-based, human
[1] = test system: peripheral blood mononuclear cells (PBMC), T cells; experiment: ELISpot assay, IFNg and IL-5 reactivity combined, T cell response to α-syn epitopes; conditions: PD patients, region including Y39
Description: Blood from age matched controls and PD patients were obtained and mononuclear cells were isolated by gradient centrifugation.
Release of the cytokines gamma-interferon, which measures activation of CD4+ and/or CD8+ T cells, and the interleukin, IL-5, which measures activation of CD4+ T cells was measured by ELISpot assay. […] After 22 hours of stimulation at 37 C, the cells were removed and release of cytokines was measured by colorimetric detection of spot-forming cells (SFC). Confirmed release of cytokine is determined by the presence of a minimum of 20 SFC per million cells.
The binding algorithms in SubAim 1 predict how well the peptides would bind to MHC if present, but not if they are present in patients. To determine this, the presence of T cell response against the candidate antigens by patient blood-derived peripheral blood mononuclear cells (PBMC) is assessed by ELISPOT assays upon stimulation with the peptides. This assay detects and quantifies cytokine release (in this case, IFNγ and IL-5) from specific activated T cells.
Data were obtained from blood samples (25 ml) from 44 PD patients and 24 age-matched controls. The experiments were conducted blindly. PBMCs from these samples were isolated and exposed to pools comprising the 122 candidate class I and class II antigens and phosphorylated S129 epitopes generated in Subaim 1. For the PBMCs responsive to the pooled peptides, the response was then deconvoluted to identify individual epitopes.
PMBC fractions are recovered by standard methods with Ficoll gradient and T cells expansion (Oseroff et al., 2010). The methods for the analysis of T cell reactions and measurement of cytokines production using the enzyme-linked immunosorbent spot (ELISPOT) assay are published in analogous experiments to discover antigens in multiple sclerosis (Lolli et al., 2013) and in hay fever allergens (Oseroff et al., 2010). T cell responses are determined by measuring IFNγ and IL-5 release by ELISPOT. Statistical analysis of differences between populations is expected to be non-parametric and analyzed with the U-Mann-Whitney test. If there were a normal distribution of response, which is a priori unlikely as some patients have no T cell response, with an SD=1, 8 patients per group would be required to provide a p>90% that the study detect a >2 fold difference at a two-sided 0.05 significance level.

[2] = test system: peripheral blood mononuclear cells (PBMC), T cells; experiment: ELISpot assay, gamma-interferon release (SFC) after stimulation with a-synuclein epitope pools; conditions: for Pool +: IFNg, Pool Stimulated, number of donors with a positive response, Donors tested 1
In short: (§1)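 Ficoll-isolated PBMC from PD patients and age-matched controls were stimulated 22 h at 37 °C with pools of candidate α-syn class I/II and phospho-S129 epitopes, then deconvoluted to single epitopes in responders. IFNγ and IL-5 spot-forming cells were counted colorimetrically, with ≥20 SFC per million cells counted as a response.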

[3] = test system: peripheral blood mononuclear cells (PBMC), T cells; experiment: ELISpot assay, IL-5 release (SFC) after stimulation with a-synuclein epitope pools
In short: as §1

[4] = Patients Summary, PD patients, of donors tested (peptide)
[5] = Patients Summary, PD patients, single peptide
[6] = number of donors positive to the single peptide, second 'Pool Stimulated' section (from r296), 12 donors tested
[7] = peptide + / donors tested (peptide), second 'Pool Stimulated' section (from r296), 12 donors tested
[8] = single peptide, second 'Pool Stimulated' section (from r296), 12 donors tested
[9] = Patients Summary, Phospho pool peptides
[10] = Patients Summary, Phospho pool peptides, 10 donors tested
[11] = peptides of pool 'Poshpho', 8 donors tested
[12] = peptides of pool 'Poshpho', 8 donors tested, number of donors positive

Row | Substance | Pool + [2] | IFNg Peptide + (donors positive to the peptide) [2, 4] | IFNg Avg SFC [2, 5] [SFC] | IFNg Response Frequency [2, 5] [%] | IFNg Total SFC [2, 5] [SFC] | IFNg Peptide + [2, 6] | IFNg Response Frequency [2, 7] [%] | IFNg Total SFC [2, 8] [SFC] | IL-g Peptide + (donors positive to the peptide) [3, 4] | IL-g Response Frequency [3, 5] [%] | IL-g Total SFC [3, 5] [SFC] | IL-g Peptide + [3, 6] | IL-g Response Frequency [3, 7] [%] | IL-g Total SFC [3, 8] [SFC] | IL-g Avg SFC [3, 5] [SFC] | other results
1 | VLYVGSKTK (listed as Homo sapiens) | – | – | – | – | – | – | – | – | – | – | – | – | – | – | – | epitope identified by deconvolution of T cell response, in words [1]: antigenic
2 | GVLYVGSKTK (listed as Homo sapiens) | – | – | – | – | – | – | – | – | – | – | – | – | – | – | – | epitope identified by deconvolution of T cell response, in words [1]: antigenic
3 | 3521.0021 (PGKTKEGVL; listed as Homo sapiens) | 0 | 1 | 36 | 13 | 36 | 0 | 0 | 0 | 0 | 0 | 0 | 0 | 0 | 0 | – | –
4 | 3521.0072 (EGVVHGVTTVAEKTK; listed as Homo sapiens) | 1 | 0 | – | 0 | 0 | 1 | 50 | 93.3 | 0 | 0 | 0 | 0 | 0 | 0 | – | IFNg Avg SFC [2, 8]: 93.3 SFC
5 | 3521.0009 (LYVGSKTKK; listed as Homo sapiens) | 0 | 2 | 163 | 33 | 326 | – | – | – | 1 | 17 | 559 | – | – | – | 559 | –
6 | 3521.006 (VATVAEKTKE; listed as Homo sapiens) | 1 | 0 | – | 0 | 0 | 0 | 0 | 0 | 0 | 0 | 0 | 0 | 0 | 0 | – | –
7 | 3521.0061 (AATGFVKKDQ; listed as Homo sapiens) | 0 | 0 | – | 0 | 0 | 1 | 50 | 84 | 0 | 0 | 0 | 1 | 50 | 195 | – | IFNg Avg SFC [2, 8]: 84 SFC; IL-g Avg SFC [3, 8]: 195 SFC
8 | 3521.0055 (QEGILEDMPV; listed as Homo sapiens) | 0 | 0 | – | 0 | 0 | 0 | 0 | – | 0 | 0 | 0 | 1 | 50 | 58 | – | IL-g Avg SFC [3, 8]: 58 SFC
9 | 3521.0037 (LYVGSKTKEG; listed as Homo sapiens) | 0 | 1 | 248 | 17 | 248 | – | – | – | 1 | 17 | 754 | – | – | – | 754 | –
10 | 3521.0036 (AGSIAAATGF; listed as Homo sapiens) | 0 | 0 | – | 0 | 0 | 0 | 0 | 0 | 0 | 0 | 0 | 0 | 0 | 0 | – | –
11 | 3521.0028 (MPSEEGYQDY; listed as Homo sapiens) | 0 | 0 | – | 0 | 0 | 0 | 0 | – | 0 | 0 | 0 | 0 | 0 | 0 | – | Pool + ([2]; pool 'Phospho' (phosphorylated peptides)): 1; IFNg Avg SFC [2, 9]: 420 SFC; IFNg Response Frequency [2, 9]: 30%; IFNg Total SFC [2, 9]: 1260 SFC; IFNg Peptide + (donors positive to the peptide) [2, 10]: 3; IFNg Avg SFC [2, 11]: 40 SFC; IFNg Response Frequency [2, 11]: 13%; IFNg Total SFC [2, 11]: 40 SFC; IFNg Peptide + [2, 12]: 1; IL-g Avg SFC [3, 9]: 350 SFC; IL-g Response Frequency [3, 9]: 20%; IL-g Total SFC [3, 9]: 700.3 SFC; IL-g Peptide + (donors positive to the peptide) [3, 10]: 2; IL-g Avg SFC [3, 11]: 113 SFC; IL-g Response Frequency [3, 11]: 13%; IL-g Total SFC [3, 11]: 113 SFC; IL-g Peptide + [3, 12]: 1
12 | 3521.0078 (YVGSKTKKGVVHGVA; listed as Homo sapiens) | 0 | 1 | 474 | 17 | 474 | – | – | – | 1 | 17 | 93 | – | – | – | 93 | –
13 | 3521.0032 (GAVVTGVTAV; listed as Homo sapiens) | 1 | 0 | – | 0 | 0 | 0 | 0 | 0 | 0 | 0 | 0 | 0 | 0 | 0 | – | –
14 | 3521.0034 (GVLYVGSKTK; listed as Homo sapiens) | 1 | 5 | 452 | 83 | 2260 | – | – | – | 2 | 33 | 284 | – | – | – | 142 | –
15 | 3521.0042 (AGKTKEGVLY; listed as Homo sapiens) | 0 | 1 | 31 | 13 | 31 | 0 | 0 | 0 | 0 | 0 | 0 | 0 | 0 | 0 | – | –
16 | 3521.0062 (KTKKGVVHG; listed as Homo sapiens) | 0 | 1 | 113 | 17 | 113 | – | – | – | 1 | 17 | 40 | – | – | – | 40 | –
